Laboratory results: US12054498B2, “Heteroaromatic macrocyclic ether chemotherapeutic agents” (Nuvalent, Inc., priority 2020, dated 2024)

Experiments:
[1] = target: T1, ALK-wt (Homo sapiens, UniProt Q9UM73); assay: Biochemical kinase assay, ALK-wt kinase domain; settings: apparent inhibitory constant, Morrison equation; ATP 2 mM in substrate solution; read-out: ALK-wt Ki^app
T1 construct: purchased Carna 08-518
Method in brief: (§1)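 Apparent Ki values come from fitting initial reaction rates against inhibitor concentration to the Morrison equation. Rates were taken from the linear phase of fluorogenic substrate phosphorylation (AQT0101 for ALK and ROS1, AQT0104 for TRKA; 26 μM in substrate solution with 2 mM ATP), monitored at 485 nm over 120 min at 30° C.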

[2] = target: T2, ALK L1196M/G1202R (Homo sapiens, UniProt Q9UM73, G1202R/L1196M); assay: Biochemical kinase assay, ALK L1196M/G1202R kinase domain; settings: apparent inhibitory constant, Morrison equation; ATP 2 mM in substrate solution; read-out: ALK-L1196M-G1202R Ki^app
T2 construct: purchased SignalChem A19-12NG
T2 sequence (Q9UM73 1116-1392 L1196M/G1202R limits assumed): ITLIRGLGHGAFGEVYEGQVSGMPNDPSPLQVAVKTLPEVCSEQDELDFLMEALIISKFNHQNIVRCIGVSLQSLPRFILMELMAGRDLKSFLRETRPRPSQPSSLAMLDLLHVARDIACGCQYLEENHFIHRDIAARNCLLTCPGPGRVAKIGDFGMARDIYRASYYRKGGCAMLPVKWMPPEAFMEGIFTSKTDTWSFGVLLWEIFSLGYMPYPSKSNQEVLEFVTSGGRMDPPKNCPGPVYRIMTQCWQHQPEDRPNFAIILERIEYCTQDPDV
Method in brief: as §1

[3] = target: T3, ROS1-wt (Homo sapiens, UniProt P08922); assay: Biochemical kinase assay, ROS1-wt kinase domain; settings: apparent inhibitory constant, Morrison equation; ATP 2 mM in substrate solution; read-out: ROS1-wt Ki^app
T3 construct: purchased Carna 08-163
T3 sequence (P08922 1945-2222 limits assumed): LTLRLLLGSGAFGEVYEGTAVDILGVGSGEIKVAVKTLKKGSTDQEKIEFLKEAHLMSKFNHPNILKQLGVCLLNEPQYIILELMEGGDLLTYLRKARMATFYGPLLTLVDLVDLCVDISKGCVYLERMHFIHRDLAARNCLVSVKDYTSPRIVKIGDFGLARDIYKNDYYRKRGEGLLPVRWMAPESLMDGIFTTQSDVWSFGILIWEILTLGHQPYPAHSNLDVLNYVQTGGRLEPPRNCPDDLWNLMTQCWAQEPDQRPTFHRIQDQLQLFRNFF
Method in brief: (§2)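 Compounds, as 100-fold DMSO stocks, were dispensed first, then substrate mix was added (ATP 2 mM, AQT0101 26 μM, in 50 mM HEPES pH 7.5/10 mM MgCl2). Reactions ran at 30 °C with fluorescence logged every 2 min over 120 min. Apparent inhibition constants came from fitting rates to Morrison's tight-binding equation.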

[4] = target: T4, ROS1-G2032R (Homo sapiens, UniProt P08922, G2032R); assay: Biochemical kinase assay, ROS1-G2032R kinase domain; settings: apparent inhibitory constant, Morrison equation; ATP 2 mM in substrate solution; read-out: ROS1-G2032R Ki^app
T4 construct: purchased SignalChem R14-12BG
T4 sequence (P08922 1945-2222 G2032R limits assumed): as the sequence (P08922 1945-2222 limits assumed) above, with G88R counted along it
Method in brief: as §2

[5] = target: T5, TRKA-wt (Homo sapiens, UniProt P04629); assay: Biochemical kinase assay, TRKA-wt kinase domain; settings: apparent inhibitory constant, Morrison equation; ATP 2 mM in substrate solution; read-out: TRKA-wt Ki^app
T5 construct: or TRKA-wt (1 nM, BPS Bio, 40280) kinase domains in buffer; purchased BPS Bio 40280
T5 sequence (P04629 510-781 limits assumed): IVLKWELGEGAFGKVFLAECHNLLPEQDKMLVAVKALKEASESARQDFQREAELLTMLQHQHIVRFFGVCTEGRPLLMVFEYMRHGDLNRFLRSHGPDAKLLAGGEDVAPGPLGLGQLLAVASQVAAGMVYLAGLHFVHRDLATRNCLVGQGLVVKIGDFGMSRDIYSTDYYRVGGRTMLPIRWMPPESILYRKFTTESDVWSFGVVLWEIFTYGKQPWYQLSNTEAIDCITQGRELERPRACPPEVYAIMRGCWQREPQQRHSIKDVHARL
Method in brief: as §1

[6] = target: T6, Ba/F3 cells CD74-ROS1 wild-type (wt) (Homo sapiens, UniProt P08922); assay: Ba/F3 cell proliferation assay, CD74-ROS1 wild-type; type: cell-based; settings: 72 hours, CellTiter-Glo
T6 construct: fusion of the C-terminus of ROS1 with the N-terminus of various partner proteins; host or cells: Ba/F3 (RIKEN), retroviral pMSCV-puro; the other entry of the earlier key: CD74 (P04233, HLA class II histocompatibility antigen gamma chain)
T6 sequence (P08922 1883-2347 limits assumed): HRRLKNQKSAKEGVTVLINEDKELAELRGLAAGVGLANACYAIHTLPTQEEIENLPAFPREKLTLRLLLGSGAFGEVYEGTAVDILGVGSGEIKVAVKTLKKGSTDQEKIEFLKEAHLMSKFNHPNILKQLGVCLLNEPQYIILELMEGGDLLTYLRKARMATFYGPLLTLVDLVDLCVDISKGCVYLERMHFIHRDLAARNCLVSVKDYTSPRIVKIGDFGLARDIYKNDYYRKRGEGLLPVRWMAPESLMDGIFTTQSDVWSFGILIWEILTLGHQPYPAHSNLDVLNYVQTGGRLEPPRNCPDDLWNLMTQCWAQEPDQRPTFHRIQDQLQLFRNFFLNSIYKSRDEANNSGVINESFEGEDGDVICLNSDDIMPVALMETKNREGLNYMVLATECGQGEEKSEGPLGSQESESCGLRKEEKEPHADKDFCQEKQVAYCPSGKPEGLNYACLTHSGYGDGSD
Method in brief: (§3)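 First, retrovirally infected Ba/F3 cells were made IL-3-independent and selected with puromycin (0.8 μg/mL). Next, cells were plated and rested one day. Then compounds in 3-fold dilutions were added for 72 hours before CellTiter-Glo readout.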

[7] = target: T7, Ba/F3 cells CD74-ROS1 G2032R (Homo sapiens, UniProt P08922, G2032R); assay: Ba/F3 cell proliferation assay, CD74-ROS1 G2032R; type: cell-based; settings: 72 hours, CellTiter-Glo
T7 construct: fusion of the C-terminus of ROS1 with the N-terminus of various partner proteins; host or cells: Ba/F3 (RIKEN), retroviral pMSCV-puro; the other entry of the earlier key: CD74 (P04233, HLA class II histocompatibility antigen gamma chain)
T7 sequence (P08922 1883-2347 G2032R limits assumed): as the sequence (P08922 1883-2347 limits assumed) above, with G150R counted along it
Method in brief: as §3

[8] = target: T8, Ba/F3 cells EML4-ALK wt (variant 1) (Homo sapiens, UniProt Q9UM73); assay: Ba/F3 cell proliferation assay, EML4-ALK wt (variant 1); type: cell-based; settings: 72 hours, CellTiter-Glo
T8 construct: echinoderm microtubule-associated protein-like 4 (EML4) gene and the ALK tyrosine kinase domain; host or cells: Ba/F3 (RIKEN), retroviral pMSCV-puro; the other entry of the earlier key: EML4 (Q9HC35, Echinoderm microtubule-associated protein-like 4)
T8 sequence (Q9UM73 with tags, fused parts or gaps): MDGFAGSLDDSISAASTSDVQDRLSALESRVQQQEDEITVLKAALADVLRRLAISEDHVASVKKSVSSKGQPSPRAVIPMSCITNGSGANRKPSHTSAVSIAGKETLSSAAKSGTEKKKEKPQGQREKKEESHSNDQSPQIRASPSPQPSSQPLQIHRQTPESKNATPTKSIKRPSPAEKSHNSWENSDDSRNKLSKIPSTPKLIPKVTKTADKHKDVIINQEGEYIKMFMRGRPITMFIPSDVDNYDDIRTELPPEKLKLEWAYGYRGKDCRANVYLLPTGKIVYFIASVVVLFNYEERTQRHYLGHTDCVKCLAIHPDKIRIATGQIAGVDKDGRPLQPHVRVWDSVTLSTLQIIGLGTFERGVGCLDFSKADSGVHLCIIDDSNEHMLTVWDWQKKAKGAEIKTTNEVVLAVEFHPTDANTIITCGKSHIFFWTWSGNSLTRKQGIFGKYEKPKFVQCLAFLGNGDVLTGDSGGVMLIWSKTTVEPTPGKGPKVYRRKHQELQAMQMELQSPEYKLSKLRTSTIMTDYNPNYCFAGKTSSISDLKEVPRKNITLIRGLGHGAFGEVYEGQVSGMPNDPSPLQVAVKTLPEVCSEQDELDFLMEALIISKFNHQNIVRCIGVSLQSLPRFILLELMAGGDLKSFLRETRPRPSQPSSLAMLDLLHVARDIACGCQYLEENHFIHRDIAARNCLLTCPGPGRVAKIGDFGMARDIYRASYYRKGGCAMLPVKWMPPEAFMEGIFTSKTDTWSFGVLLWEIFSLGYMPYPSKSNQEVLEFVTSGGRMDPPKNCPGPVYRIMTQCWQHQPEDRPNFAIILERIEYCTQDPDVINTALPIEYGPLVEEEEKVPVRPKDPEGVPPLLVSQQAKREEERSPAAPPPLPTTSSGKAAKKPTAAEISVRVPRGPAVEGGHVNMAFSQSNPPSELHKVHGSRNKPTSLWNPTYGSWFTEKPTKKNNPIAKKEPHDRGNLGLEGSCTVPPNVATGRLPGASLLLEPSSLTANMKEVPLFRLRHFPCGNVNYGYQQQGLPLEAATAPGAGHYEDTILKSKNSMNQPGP
Method in brief: (§4)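 Proliferation of fusion-driven Ba/F3 monoclones (grown without IL-3, puromycin 0.8 μg/mL) is followed over 72 hours of treatment with a 3-fold compound dilution series. ATP content is read by CellTiter-Glo luminescence, and IC50 is derived by four-parameter logistic fitting of percent inhibition.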

[9] = target: T9, Ba/F3 cells EML4-ALK L1196M/G1202R (variant 1) (Homo sapiens, UniProt Q9UM73, G1202R/L1196M); assay: Ba/F3 cell proliferation assay, EML4-ALK L1196M/G1202R (variant 1); type: cell-based; settings: 72 hours, CellTiter-Glo
T9 construct: echinoderm microtubule-associated protein-like 4 (EML4) gene and the ALK tyrosine kinase domain; host or cells: Ba/F3 (RIKEN), retroviral pMSCV-puro; the other entry of the earlier key: EML4 (Q9HC35, Echinoderm microtubule-associated protein-like 4)
T9 sequence (Q9UM73 with tags, fused parts or gaps L1196M/G1202R): as the sequence (Q9UM73 with tags, fused parts or gaps) above, with L635M, G641R counted along it
Method in brief: as §4

[10] = target: T10, Ba/F3 cells TPM3-TRKA (Homo sapiens, UniProt P04629); assay: Ba/F3 cell proliferation assay, TPM3-TRKA; type: cell-based; settings: 72 hours, CellTiter-Glo, read-out: TPM3-NTRK1-wt IC50
T10 construct: host or cells: Ba/F3 (RIKEN), retroviral pMSCV-puro; the other entry of the earlier key: TPM3 (P06753, Tropomyosin alpha-3 chain)
T10 sequence (P04629 510-796 limits assumed): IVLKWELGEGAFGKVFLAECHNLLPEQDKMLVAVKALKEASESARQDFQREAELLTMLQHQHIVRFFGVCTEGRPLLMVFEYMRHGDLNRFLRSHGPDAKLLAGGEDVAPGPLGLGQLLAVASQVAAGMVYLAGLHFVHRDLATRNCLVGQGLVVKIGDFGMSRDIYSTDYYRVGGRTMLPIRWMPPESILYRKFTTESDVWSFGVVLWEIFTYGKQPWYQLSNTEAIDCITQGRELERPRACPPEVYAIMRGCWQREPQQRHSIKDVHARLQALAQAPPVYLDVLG
Method in brief: as §4

[11] = test system: TPM3-NTRK1-wt IC50 / primary target IC50 (e.g. CD74-ROS1-wt); assay: TRKA selectivity in Ba/F3 cells (TRKA potency divided by primary target potency); type: cell-based; settings: for TPM3-NTRK1-wt/CD74-ROS1-G2032R selectivity ratio: TRKA potency / CD74-ROS1-G2032R potency; for TPM3-NTRK1-wt/CD74-ROS1-wt selectivity ratio: TRKA potency / CD74-ROS1-wt potency; for TPM3-NTRK1-wt/EML4-ALK-L1196M-G1202R selectivity ratio: TRKA potency / EML4-ALK-L1196M-G1202R potency; for TPM3-NTRK1-wt/EML4-ALK-wt selectivity ratio: TRKA potency / EML4-ALK-wt potency
Protocol: TRKA selectivity was calculated by dividing a compound's TRKA potency by its primary target potency (e.g. TPM3-NTRK1-wt IC50/CD74-ROS1-wt IC50). Compound selectivity can be interpreted by binning ratio values: bin A for very high selectivity, ratio >30-fold; bin B for high selectivity, ratio >10-fold; bin C for moderate selectivity, ratio ≥1; and bin D for low selectivity, ratio <1. […] (nd=not determined).

T1 sequence (Q9UM73 1116-1392 limits assumed): as the sequence (Q9UM73 1116-1392 L1196M/G1202R limits assumed) above, with M81L, R87G counted along it

Structure (SMILES) | Ki [1] [µM] | Ki [2] [µM] | Ki [3] [µM] | Ki [4] [µM] | Ki [5] [µM] | IC50 [6] [µM] | IC50 [7] [µM] | IC50 [8] [µM] | IC50 [9] [µM] | IC50 [10] [µM] | TPM3-NTRK1-wt/CD74-ROS1-G2032R selectivity ratio [11] | TPM3-NTRK1-wt/CD74-ROS1-wt selectivity ratio [11] | TPM3-NTRK1-wt/EML4-ALK-L1196M-G1202R selectivity ratio [11] | TPM3-NTRK1-wt/EML4-ALK-wt selectivity ratio [11]
CCc1snc2c1-c1cnc(N)c(c1)O[C@H](C)c1cc(F)ccc1-c1nn(C)nc1C2 [Example 87, (19R)-3-ethyl-16-fluoro-10,19-dimethyl-20-oxa-4-thia-5,9,10,11,23-pentaazapentacyclo[19.3.1.0^2,^6.0^8,^12.0^13,^18]pentacosa-1(24),2,5,8,11,13,15,17,21(25),22-decaen-22-amine] | < 0.05 | 0.05 to 0.5 | < 0.05 | 0.05 to 0.5 | > 0.5 | 0.0001 to 0.05 | 0.0001 to 0.05 | 0.0001 to 0.05 | > 0.5 | 0.05 to 0.5 | B (bin B for high selectivity, ratio >10-fold) | A (bin A for very high selectivity, ratio >30-fold) | D (bin D for low selectivity, ratio <1) | A (bin A for very high selectivity, ratio >30-fold)
CCn1nc2c(n1)-c1ccc(F)cc1[C@@H](C)Oc1cc(cnc1N)-c1c(cnn1CC)C2 [Example 88, (19R)-3,10-diethyl-16-fluoro-19-methyl-20-oxa-3,4,9,10,11,23-hexaazapentacyclo(19.3.1.0^2,^6.0^8,^12.0^13,^18]pentacosa-1(24),2(6),4,8,11,13,15,17,21(25),22-decaen-22-amine] | < 0.05 | < 0.05 | < 0.05 | < 0.05 | 0.05 to 0.5 | 0.0001 to 0.05 | 0.0001 to 0.05 | 0.0001 to 0.05 | 0.05 to 0.5 | 0.05 to 0.5 | A (bin A for very high selectivity, ratio >30-fold) | A (bin A for very high selectivity, ratio >30-fold) | C (bin C for moderate selectivity, ratio ≥1) | B (bin B for high selectivity, ratio >10-fold)
C[C@H]1Oc2cc(cnc2N)-c2c(c(Cl)nn2CC2CC2)Cc2nn(C)cc2-c2ccc(F)cc21 [Example 90, (19R)-5-chloro-3-(cyclopropylmethyl)-16-fluoro-10,19-dimethyl-20-oxa-3,4,9,10,23-pentaazapentacyclo[19.3.1.0^2,^6.0^8,^12.0^13,^18]pentacosa-1(24),2(6),4,8,11,13,15,17,21(25),22-decaen-22-amine] | < 0.05 | < 0.05 | < 0.05 | < 0.05 | > 0.5 | 0.0001 to 0.05 | 0.0001 to 0.05 | 0.0001 to 0.05 | 0.05 to 0.5 | > 0.5 | A (bin A for very high selectivity, ratio >30-fold) | A (bin A for very high selectivity, ratio >30-fold) | A (bin A for very high selectivity, ratio >30-fold) | A (bin A for very high selectivity, ratio >30-fold)
Cc1cc2n(n1)Cc1cnn(CCF)c1-c1cnc(N)c(c1)O[C@H](C)c1cc(F)ccc1-2 [Example 92, (19R)-16-fluoro-3-(2-fluoroethyl)-10,19-dimethyl-20-oxa-3,4,8,9,23-pentaazapentacyclo[19.3.1.0^2,^6.0^8,^12.0^13,^18]pentacosa-1(24),2(6),4,9,11,13,15,17,21(25),22-decaen-22-amine] | < 0.05 | < 0.05 | < 0.05 | < 0.05 | > 0.5 | 0.0001 to 0.05 | 0.0001 to 0.05 | 0.0001 to 0.05 | 0.05 to 0.5 | 0.05 to 0.5 | A (bin A for very high selectivity, ratio >30-fold) | A (bin A for very high selectivity, ratio >30-fold) | C (bin C for moderate selectivity, ratio ≥1) | B (bin B for high selectivity, ratio >10-fold)
